Source: US20240041853A1, “DOSAGE REGIMEN FOR A NR2B-NMDA RECEPTOR NAM FOR THE TREATMENT OF DEPRESSION” (Novartis AG, priority 2020, published 2024)

Key:
[1] = system: patients with treatment resistant depression (TRD); experiment: Phase IIa proof of concept study, efficacy (MADRS, CGI-I); format: in vivo, human
Procedure: (§1) A multi-center, randomized, subject and investigator blinded, placebo controlled, active comparator, parallel group, proof of concept study to evaluate the efficacy, safety, tolerability, and pharmacokinetics of Compound (I) in patients with treatment resistant depression (TRD). The study included two different active Compound (I) doses of 0.16 mg/kg and 0.32 mg/kg given in two different regiments—weekly and bi-weekly (every other week). The study also included a ketamine arm.
(§2) Adults with major depressive disorder and prior failure of ≥2 standard antidepressants of adequate dose and >8 weeks duration in a major depressive episode (per DSM-5 criteria) and Montgomery-Åsberg Depression Rating Scale (MADRS) score ≥24 were eligible. Patients were randomized (3:3:3:3:6:4) to one of six treatment arms for 36 days: low dose (0.16 mg/kg) Compound (I) weekly (N=11) or every other week (q2w [N=10]); high dose (0.32 mg/kg) Compound (I) weekly (N=10) or q2w (N=9); placebo (N=20); or ketamine 0.5 mg/kg weekly (N=10). Change in MADRS total score at 24 hours (h) from baseline (primary endpoint), was analyzed using analysis of covariance. Secondary endpoints included change in MADRS score at 48 hours and 6 weeks and clinical global impression-improvement (CGI-I) score at 24 hours, 48 hours and 6 weeks. Safety and tolerability were also assessed.

[2] = system: patients with treatment resistant depression (TRD); experiment: Phase IIa proof of concept study, safety and tolerability (adverse events); format: in vivo, human
Procedure: as §1, §2

[3] = system: patients with unipolar and bipolar depression; details: cited from earlier work
[4] = Garner et al 2015; Pagnozzi et al 1995; Preskorn et al 2008; cited from earlier work

With `CNC1(c2ccccc2Cl)CCCCC1=O` (stereo not drawn) [ketamine] the “Adjusted mean difference (ΔAM) in MADRS vs placebo” value (from here on “Adjusted mean difference (ΔAM)”) ([1]; at 24 hours, ketamine 0.5 mg/kg weekly, p=0.046) was −5.67, the “mean decrease in MADRS score” value ([1]; at 24 hours, ketamine group, 0.5 mg/kg weekly) was 12.94 points and the “Adjusted mean difference (ΔAM)” value ([1]; at 48 h, ketamine 0.5 mg/kg weekly, p=0.019) was −11.02. For the same compound, the “Adverse events (AEs), patients” value ([2]; ketamine 0.5 mg/kg weekly) was 50%, the “Dissociative AEs, patients” value ([2]; ketamine 0.5 mg/kg weekly) was 50% and the incidence of sedation ([2]; ketamine 0.5 mg/kg weekly) was 10%. The effect on suicidality ([3]; Katalinic et al 2013, Murrough et al 2015) was “reduce suicidality” and the antidepressant effects ([3]; single dose 0.5 mg/kg infused over 40 minutes, 7 patients, Berman et al 2000) was “rapid antidepressant effects”.
For `Cc1ccc(COC(=O)N2CC[C@H](CNc3ncccn3)[C@H](F)C2)cc1` [MK-0657], the “frequency of dissociative adverse events” value [4] is listed as “low frequencies of dissociative adverse events”.
For `Oc1ccc([C@@H](O)CN2C[C@H]3C[C@H](Oc4ccccc4F)C[C@H]3C2)nc1` [Compound (I)], the “time in which efficacy occurred” value ([1]; 0.16 mg/kg or 0.32 mg/kg, weekly or every other week) was ≤ 24 h, the “ΔAM [80% CI] in MADRS score vs placebo” value ([1]; Week 6, 0.16 mg/kg q2w, 80% CI [−11.8, −1.15], p=0.059, greatest benefit) was −6.46 and the maintenance of efficacy ([1]; after repeated dosing) was “maintained at 6 weeks”. The “CGI-I scores vs placebo” value ([1]; at 24 hours, 48 hours and 6 weeks) was “suggested benefits”, the “Adjusted mean difference (ΔAM)” value ([1]; at 24 hours, pooled 0.16 mg/kg, p=0.001) was −8.25 and the “mean decrease in MADRS score” value ([1]; at 24 hours, pooled Compound (I) 0.16 mg/kg group (weekly and q2w)) was 15.51 points. For the same compound, the “mean decrease in MADRS score” value ([1]; at 24 hours, pooled Compound (I) 0.32 mg/kg group (weekly and q2w)) was 12.98 points, the “Adjusted mean difference (ΔAM)” value ([1]; at 24 hours, second pooled Compound (I) group (dose figure missing in print), p=0.019) was −5.71 and the “Adjusted mean difference (ΔAM)” value ([1]; at 48 h, pooled 0.16 mg/kg, p=0.013) was −7.06. The “Adjusted mean difference (ΔAM)” value ([1]; at 48 h, second pooled Compound (I) group (dose figure missing in print), p=0.013) was −7.37, the “efficacy of 0.16 mg/kg compared with 0.32 mg/kg” value ([1]; each administered once every week or once every other week) was “as effective as a dose of 0.32 mg/kg” and the “improvement in MADRS score vs placebo” value ([1]; patients with TRD, overall conclusion) was “significant improvement”. For the same compound, the “Time to both onset and resolution of dissociative AEs and sedation” value ([2]; in vivo) was “longer for Compound (I) than for ketamine” and the safety signals ([2]; in vivo) was “No new safety signals were identified”.
For `C[C@@H]([C@@H](O)c1ccc(O)cc1)N1CCC(O)(c2ccccc2)CC1` [CP-101,606], the “frequency of dissociative adverse events” value [4] is given as “low frequencies of dissociative adverse events”.
